Values joined by “and” are separate entries in the source; they are usually repeats but may differ in a detail not shown here. Identical values can stand only once. “Also recorded” adds a separate entry of the source. Like-named read-outs stand apart in the source and are kept apart here.
Key:
[1] = tested on: P. falciparum Dd2 (chloroquine-resistant, mefloquine-resistant); assay: SYBR Green I assay, IC50, strain Dd2; type: cell-based, Plasmodium falciparum; conditions: for IC50: read-out: P. falciparum IC50 ± SD, Dd2
Method: (§1) Staging and parasitaemia were determined by light microscopy of Giemsa-stained thin blood smears. Anti-malarial activity was determined using the SYBR Green I assay, as previously described.

[2] = tested on: P. falciparum 3D7 (chloroquine and mefloquine sensitive); assay: SYBR Green I assay, IC50, strain 3D7; type: cell-based, Plasmodium falciparum; conditions: read-out: P. falciparum IC50 ± SD, 3D7
Method: as §1

[3] = tested on: HepG2-A16 (human hepatoma) cells; conditions: for LD50 HepG2: human, 48 h; for Selectivity index LD50 (HepG2)/IC50 (3D7): HepG2 vs 3D7; for Selectivity index LD50 (HepG2)/IC50 (Dd2): HepG2 vs Dd2; for Selectivity index LD50 (HepG2)/IC50 (IPC4912): HepG2 vs IPC4912; for Selectivity index LD50 (HepG2)/IC50 (IPC5202): HepG2 vs IPC5202
Method: (§2) Cytotoxicity was assessed on the mammalian cell lines HepG2-A16 (human hepatoma) and V79 (Chinese hamster lung), using a MTT based assay, as previously described. […] V79 and HepG2 cell lines were incubated for 24 and 48 h, respectively (media changed at 24 h intervals). Absorbance was read at 570 nm on a multi-mode microplate reader (Triad, Dynex Technologies), to produce a log dose-dependence curve. The LD50 value for each compound was estimated by non-linear interpolation of the dose-dependence curve (GraphPad Software).

[4] = tested on: V79 (Chinese hamster lung) cells; conditions: for LD50 V79: Chinese hamster, 24 h; for Selectivity index LD50 (V79)/IC50 (3D7): V79 vs 3D7; for Selectivity index LD50 (V79)/IC50 (Dd2): V79 vs Dd2; for Selectivity index LD50 (V79)/IC50 (IPC4912): V79 vs IPC4912; for Selectivity index LD50 (V79)/IC50 (IPC5202): V79 vs IPC5202
Method: as §2

[5] = tested on: P. falciparum IPC5202 (artemisinin-resistant, K13 R539T); assay: SYBR Green I assay, IC50, strain IPC5202; type: cell-based, Plasmodium falciparum; conditions: for Resistance Index RIb = IC50 (IPC5202)/IC50 (3D7): IPC5202 vs 3D7; for IC50: Plasmodium falciparum, read-out: P. falciparum IC50 ± SD, IPC5202, strain IPC5202
Method: as §1

[6] = tested on: P. falciparum IPC4912 (artemisinin-resistant, K13 I543T); assay: SYBR Green I assay, IC50, strain IPC4912; type: cell-based, Plasmodium falciparum; conditions: for Resistance Index RIc = IC50 (IPC4912)/IC50 (3D7): IPC4912 vs 3D7; for IC50: Plasmodium falciparum, read-out: P. falciparum IC50 ± SD, IPC4912
Method: Staging and parasitaemia were determined by light microscopy of Giemsa-stained thin blood smears. Anti-malarial activity was determined using the SYBR Green I assay, as previously described. Briefly, early ring stage parasites (> 80% of rings) were challenged with a 1:3 serial dilution of each compound, in concentrations ranging from 10,000–0.169 nM. Fluorescence intensity was measured with a multi-mode microplate reader (Triad, Dynex Technologies), with excitation and emission wavelengths of 485 and 535 nm, respectively, and analysed by nonlinear regression using GraphPad Prism to determine IC50 values.

[7] = tested on: P. falciparum 3D7 ring-stage parasites; assay: Ring-stage survival assay (RSA), 3D7; type: cell-based, Plasmodium falciparum; conditions: 6 h pulse, 10 x IC50 (DHA 700 nM), ART-S strain 3D7
Method: (§3) Ring-stage survival assays (RSA) were carried out as described in [21], with modifications. Parasite cultures were synchronized once, with 5% sorbitol, and in the next reinvasion cycle, twice, with a 6 h interval. […] Then, plates were centrifuged and supernatant replaced by drug-free culture media. After additional incubation during 66 h for ring-stage, and 42 h for mature-stage, susceptibility was assessed microscopically on Giemsa-stained thin blood smears by estimating the percentage of viable parasites that developed into a second generation of rings or trophozoites.

[8] = tested on: P. falciparum IPC5202 ring-stage parasites; assay: Ring-stage survival assay (RSA), IPC5202; type: cell-based, Plasmodium falciparum; conditions: 6 h pulse, 10 x IC50 (DHA 700 nM), ART-R strain IPC5202
Method: as §3

Plasmodium berghei NK65 = assay: Peters' 4-day suppressive test in Swiss albino mice; type: in vivo; conditions: for in vivo outcome against P. berghei in words: followed to day 10; for inhibition in vivo at 50 mg/kg/day: Plasmodium berghei
Method: (§4) In vivo tests were performed following the Guidelines for Ethical Conduct in The Care and Use of Animals of the Federal University of Rio Grande do Norte—Brazil (CEUA/UFRN/46/2013). Evaluation of anti-malarial activity in vivo was carried out using the Peters’ 4-day suppressive test, with modifications, as previously described. Swiss albino mice were infected with Plasmodium berghei NK65 and randomly allocated to groups of five animals. Animals were treated with 50 mg/kg/day of each of the tested compounds (dissolved in PBS containing 1% DMSO), administrated orally, for four consecutive days. The control group was treated with a solution of PBS/1% DMSO. On days 5 (D5), 7 (D7) and 10 (D10) after parasite inoculation, tail blood smears were Giemsa-stained and examined microscopically to estimate parasitaemia. Acute toxicity testing was carried out to determine adverse effects due to compounds (including weight loss, hair appearance, skin wounds and behavioural changes), and recorded daily.

Swiss albino mice = assay: Acute toxicity observation in treated mice; type: in vivo; conditions: 50 mg/kg/day oral, monitored daily
Method: as §4

[9] = Plasmodium falciparum, DD2, strain Dd2
[10] = Plasmodium falciparum, 3D7, strain 3D7
[11] = mice, 50 mg/kg/day oral for 4 days, day 5
[12] = mice, 50 mg/kg/day oral for 4 days

Structure (SMILES)	IC50 [1, 9] [nM]	IC50 [2, 10] [nM]	LD50 HepG2 [3] [mM]	LD50 V79 [4] [mM]	IC50 ([2]; strain 3D7) [nM]	Resistance Index RIb = IC50 (IPC5202)/IC50 (3D7) [5]	IC50 [5] [nM]	Resistance Index RIc = IC50 (IPC4912)/IC50 (3D7) [6]	IC50 [6] [nM]	Selectivity index LD50 (HepG2)/IC50 (3D7) [3]	Selectivity index LD50 (HepG2)/IC50 (Dd2) [3]	Selectivity index LD50 (HepG2)/IC50 (IPC4912) [3]	Selectivity index LD50 (HepG2)/IC50 (IPC5202) [3]	Selectivity index LD50 (V79)/IC50 (3D7) [4]	Selectivity index LD50 (V79)/IC50 (Dd2) [4]	Selectivity index LD50 (V79)/IC50 (IPC4912) [4]	Selectivity index LD50 (V79)/IC50 (IPC5202) [4]	in vivo outcome against P. berghei in words (Plasmodium berghei NK65; 50 mg/kg/day oral for 4 days)	Mean parasitaemia ± SD, Day 5 (Plasmodium berghei NK65; [11]) [%]	Mean parasitaemia ± SD, Day 7 (Plasmodium berghei NK65; [12]) [%]	further results
O=c1nn[nH]n1-c1ccccc1 [LC133, 1-phenyl-1H-tetrazol-5-one]	> 10000	> 10000	1.0	> 1	–	–	–	–	–	–	–	–	–	–	–	–	–	–	–	–	antiplasmodial activity of building blocks in words ([1]; tested separately, Dd2 and 3D7 (Additional file 1)): devoid of antiplasmodial activity
CC(C)(C)OC(=O)NCCCCN [LC64, tert-butyl(4-aminobutyl)carbamate]	> 10000	> 10000	1.0	> 1	–	–	–	–	–	–	–	–	–	–	–	–	–	–	–	–	–
C1C2CC3CC1CC(C2)C31OOC2(CCC(Nc3nnn[nH]3)CC2)OO1 (centres unmarked) [LC163]	–	< 100	1.0	> 1	63 ± 0.7	1.13	71.1 ± 1.1	0.30	18.6 ± 16.9	15873.0	22988.5	53763.4	14064.7	15873.0	22988.5	53763.4	14064.7	recrudescence also occurred on day 10	0	0	Ring-stage survival rate (RSA), percentage of viable parasites, 3D7 [7]: 6.9 ± 1.6% and > 1%; Ring-stage survival rate (RSA), percentage of viable parasites, IPC5202 [8]: 2.0 ± 1.9% and > 1%; inhibition in vivo at 50 mg/kg/day (Plasmodium berghei NK65; 120 h, mice, 50 mg/kg/day oral for 4 days, day 5, vs control group, read-out: % inhibition of parasite growth, Day 5 (converted)): 100%; inhibition in vivo at 50 mg/kg/day (Plasmodium berghei NK65; 168 h, mice, 50 mg/kg/day oral for 4 days, day 7, vs control group, read-out: % inhibition of parasite growth, Day 7 (converted)): 100%; inhibition in vivo at 50 mg/kg/day (Plasmodium berghei NK65; 240 h, mice, 50 mg/kg/day oral for 4 days, day 10, vs control group, read-out: % inhibition of parasite growth, Day 10 (converted)): 96.5%; Mean parasitaemia ± SD, Day 10 (Plasmodium berghei NK65; [12]): 0.2 ± 0.13%
CC(C)(C)OC(=O)NCCCCNC(=O)C1CCC2(CC1)OOC1(O2)C2CC3CC(C2)CC1C3 (centres unmarked) [MIS13]	–	–	0.3	> 1	–	0.23	1.7 ± 1.1	0.04	0.3 ± 0.3	44594.6	97058.8	1100000.0	194117.6	135135.1	294117.6	3333333.3	588235.2	by day 10 the five mice were cured; also recorded: totally suppressed P. berghei parasitaemia	0.11 ± 0.19	0.05 ± 0.10	decrease in HepG2 survival ([3]; maximum dose of 1 mM): ~30%; inhibition in vivo at 50 mg/kg/day (Plasmodium berghei NK65; po, 120 h, read-out: % inhibition of parasite growth, Day 5): 92.6%; inhibition in vivo at 50 mg/kg/day (Plasmodium berghei NK65; po, 168 h, read-out: % inhibition of parasite growth, Day 7): 98.6%; inhibition in vivo at 50 mg/kg/day (Plasmodium berghei NK65; po, 240 h, read-out: % inhibition of parasite growth, Day 10): 100%; mice presenting parasitaemia, day 5 (Plasmodium berghei NK65; groups of five mice, 50 mg/kg/day oral, day 5): 1/5; Mean parasitaemia ± SD, Day 10 (Plasmodium berghei NK65; [12]): 0%; adverse effects in vivo (Swiss albino mice): no adverse effects were observed
C[C@@H]1CC[C@H]2[C@@H](C)C(=O)O[C@@H]3O[C@@]4(C)CC[C@@H]1[C@]32OO4 [ART, artemisinin, reference compound]	2.5 ± 0.1	4 ± 0.1	0.4	> 0.4	3.97 ± 0.08	8.32	33.3 ± 8	3.32	13.3 ± 2.2	104844.6	168515.4	31295.7	12499.5	104844.6	168515.4	31295.7	12499.5	–	–	–	IC50 ([1]; strain Dd2): 2.47 ± 0.1 nM
C[C@H]1[C@H](OC(=O)CCC(=O)O)O[C@@H]2O[C@@]3(C)CC[C@H]4[C@H](C)CC[C@@H]1[C@@]24OO3 [ATN, artesunate, reference compound]	4.6 ± 1.4	5.1 ± 0.1	–	–	–	0.67	3.4 ± 0.1	0.76	3.9 ± 1.2	–	–	–	–	–	–	–	–	–	–	–	Resistance Index RIa = IC50 (Dd2)/IC50 (3D7) ([1]; Dd2 vs 3D7): 0.9
